Among the test systems are 786-0; SNB-75; MDA-N; A549; OVCAR-3; COLO 205; NCI/ADR-RES; OVCAR-8; HOP-62; SF-539; UACC-257; SK-MEL-28; EKVX; PC-3; NCI-H460; BT-549; K562; NCI-H23; SK-MEL-2; SK-OV-3.
Assay in all cases: NCI tumour cell line growth inhibition, 48 h

The structures appear in SMILES notation.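 Cultured in 96-well plates, cells were exposed to test compound for 48 hours across five concentrations. At the GI50, growth is halved.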 Active and inactive are the calls of the source. Cut-off read from the data, not from the text of the source: active = GI50 up to about 1.1 µM and inactive = higher.

Consider `CC(=O)Nc1ccc(Nc2cc(O)nc(O)n2)cc1`, for which the GI50 in the experiment with 786-0, with SNB-75, with MDA-N, with A549, in the experiment with OVCAR-3 and in the experiment with COLO 205 was > 100 µM (inactive) each time. In addition, the GI50 in the experiment with NCI/ADR-RES, with OVCAR-8, in the experiment on HOP-62, in the experiment on SF-539, with UACC-257 and in the experiment on SK-MEL-28 was > 100 µM (inactive) each time. Moreover, the GI50 in the experiment on EKVX, in the experiment with PC-3, in the experiment with NCI-H460, in the experiment with BT-549 and in the experiment on K562 was > 100 µM (inactive) each time.

For `CCOC(=O)CNC(=O)C(CSCC1C(=O)Nc2ccccc21)NC(=O)CCC(N)C(=O)OCC` (centres undefined), the GI50 in the experiment on 786-0 is 1.63 µM (inactive); with NCI-H23 it was 2.26 µM (inactive); with SK-MEL-2, 1.87 µM (inactive); with MDA-N it was 1.79 µM (inactive); in the experiment with A549, 2.34 µM (inactive); in the experiment with OVCAR-3 it was 2.01 µM (inactive). For the same compound, the GI50 in the experiment on COLO 205 was 1.24 µM (inactive); with NCI/ADR-RES, 1.08 µM (active); with OVCAR-8, 2.81 µM (inactive); with HOP-62 it was 2.1 µM (inactive); in the experiment with SF-539, 0.247 µM (active); in the experiment with UACC-257 it was 4.16 µM (inactive). In addition, the GI50 in the experiment on SK-MEL-28 was 1.68 µM (inactive); in the experiment with EKVX, 1.75 µM (inactive); in the experiment on PC-3 it was 1.88 µM (inactive); in the experiment on NCI-H460 it was 3.28 µM (inactive); in the experiment with BT-549 it was 2.44 µM (inactive); in the experiment on K562, 0.242 µM (active).

For `Cc1ccccc1-n1c(=O)c2ncn(C3CCCO3)c2n(-c2ccccc2C)c1=S` (centres undefined), the GI50 in the experiment with 786-0 was > 100 µM (inactive); in the experiment on SNB-75 it was 79.4 µM (inactive); in the experiment with NCI-H23 it was > 100 µM (inactive); with SK-MEL-2, > 100 µM (inactive); with MDA-N, > 100 µM (inactive); in the experiment on A549, > 100 µM (inactive). Besides, the GI50 in the experiment with OVCAR-3, in the experiment on COLO 205, with NCI/ADR-RES, with OVCAR-8, with HOP-62 and in the experiment with SF-539 was > 100 µM (inactive) throughout. In addition, the GI50 in the experiment on UACC-257, in the experiment on EKVX, with BT-549, with K562 and in the experiment with SK-OV-3 was > 100 µM (inactive) in each case.

In the case of `CC1=CCC[C@@](C)(O)[C@@H]2C[C@H]3C(CSc4ccccc4)C(=O)O[C@H]3[C@@H](O2)[C@H](C)CCC1` (some centres undefined), the GI50 is 20.3 µM (inactive) in the experiment with 786-0; 13.6 µM (inactive) in the experiment with SNB-75; 16.8 µM (inactive) in the experiment with NCI-H23; 17.2 µM (inactive) in the experiment on SK-MEL-2; 24.5 µM (inactive) in the experiment with MDA-N; 10.5 µM (inactive) in the experiment on A549. The GI50 is 13 µM (inactive) in the experiment with OVCAR-3; 18.1 µM (inactive) in the experiment with COLO 205; 13.7 µM (inactive) in the experiment on OVCAR-8; 16.6 µM (inactive) with HOP-62; 16.4 µM (inactive) in the experiment with SF-539; 18.6 µM (inactive) in the experiment with UACC-257. Further, the GI50 was 21 µM (inactive) with SK-MEL-28; 18.6 µM (inactive) in the experiment with EKVX; 6.62 µM (inactive) with PC-3; 6.1 µM (inactive) with NCI-H460; 22.7 µM (inactive) in the experiment on BT-549; 9.08 µM (inactive) in the experiment with K562. In addition, the GI50 in the experiment with SK-OV-3 is 21.5 µM (inactive).

Consider `Nc1nc(Cc2ccccc2)nc(Cc2ccccc2)c1-c1ccccc1`, for which the GI50 in the experiment on 786-0 is 22.9 µM (inactive); in the experiment on NCI-H23 it was 17.7 µM (inactive); in the experiment on SK-MEL-2 it was 13.6 µM (inactive); in the experiment with MDA-N it was 16.1 µM (inactive); in the experiment on A549, 33.9 µM (inactive); in the experiment with OVCAR-3 it was 14.7 µM (inactive). The GI50 in the experiment with NCI/ADR-RES is 16.7 µM (inactive); in the experiment on OVCAR-8, 28.7 µM (inactive); in the experiment with HOP-62, 20.7 µM (inactive); in the experiment on UACC-257 it was 37.3 µM (inactive); in the experiment on SK-MEL-28, 48.1 µM (inactive); with EKVX, 11.4 µM (inactive). In addition, the GI50 in the experiment with PC-3 is 23.1 µM (inactive); with NCI-H460, 28.2 µM (inactive); with BT-549, 20.6 µM (inactive); in the experiment on K562, 18 µM (inactive).

On to `Cc1ccc(N2C(=O)C3c4[nH]c5ccc(C)cc5c4C4CCC(C(C)(C)C)CC4C3C2=O)cc1` (centres undefined), for which the GI50 is 4.9 µM (inactive) with 786-0; 16.6 µM (inactive) with NCI-H23; 35.8 µM (inactive) in the experiment with SK-MEL-2; 21 µM (inactive) with MDA-N; 13.6 µM (inactive) in the experiment with A549; 12.1 µM (inactive) with OVCAR-3. Besides, the GI50 in the experiment with COLO 205 is 15.2 µM (inactive); with NCI/ADR-RES, 19.5 µM (inactive); in the experiment on OVCAR-8, 9.62 µM (inactive); in the experiment on HOP-62, 10.8 µM (inactive); with UACC-257, 33.1 µM (inactive); in the experiment on SK-MEL-28 it was 22.4 µM (inactive). Further, the GI50 is 10.8 µM (inactive) in the experiment on EKVX; 16.6 µM (inactive) in the experiment with PC-3; 7.36 µM (inactive) in the experiment with NCI-H460; 26.9 µM (inactive) with BT-549; 4.05 µM (inactive) with K562.

As for `O=C(Nc1ccccc1)N1N=C(c2ccccc2)C1c1ccccc1` (centres undefined), the GI50 was 16.4 µM (inactive) in the experiment on 786-0; 15.8 µM (inactive) in the experiment with SNB-75; 23.3 µM (inactive) in the experiment on NCI-H23; 27.4 µM (inactive) in the experiment on MDA-N; 25.3 µM (inactive) with A549; 20.7 µM (inactive) in the experiment with OVCAR-3. The GI50 in the experiment on COLO 205 is 41.7 µM (inactive); in the experiment with NCI/ADR-RES, 26.4 µM (inactive); in the experiment on OVCAR-8 it was 33.8 µM (inactive); in the experiment with SF-539, 14.9 µM (inactive); with UACC-257, 31.8 µM (inactive); in the experiment on SK-MEL-28 it was 53.7 µM (inactive). Also, the GI50 was 40.4 µM (inactive) in the experiment on EKVX; 18.8 µM (inactive) in the experiment with PC-3; 42.3 µM (inactive) with NCI-H460; 23.2 µM (inactive) with BT-549; 90.8 µM (inactive) in the experiment on SK-OV-3.

On to `O=c1[nH]c2c(c(=O)[nH]1)SC(c1ccccc1)C2` (centres undefined), for which the GI50 is > 100 µM (inactive) with 786-0; 86.9 µM (inactive) in the experiment with SNB-75; > 100 µM (inactive) with NCI-H23; 93.8 µM (inactive) with SK-MEL-2; > 100 µM (inactive) with MDA-N; > 100 µM (inactive) with A549. Further, the GI50 with OVCAR-3, in the experiment with COLO 205, with NCI/ADR-RES, in the experiment with OVCAR-8, with HOP-62 and in the experiment with SF-539 was > 100 µM (inactive) each time. Also, the GI50 was > 100 µM (inactive) with UACC-257; > 100 µM (inactive) with SK-MEL-28; 72.1 µM (inactive) in the experiment on EKVX; > 100 µM (inactive) in the experiment on PC-3; > 100 µM (inactive) in the experiment on NCI-H460; > 100 µM (inactive) in the experiment on BT-549. Besides, in the experiment with K562, the GI50 was > 100 µM (inactive).

Regarding `CC(C)C(OC(=O)c1ccc(NCc2cc(O)ccc2O)cc1)C(C)C`, the GI50 is 1.14 µM (inactive) in the experiment with 786-0; 0.746 µM (active) with SNB-75; 1.89 µM (inactive) with NCI-H23; 2.35 µM (inactive) in the experiment on SK-MEL-2; 2.39 µM (inactive) in the experiment on MDA-N; 5.77 µM (inactive) in the experiment on A549. Further, the GI50 in the experiment on OVCAR-3 is 1.36 µM (inactive); in the experiment with COLO 205, 0.865 µM (active); in the experiment on NCI/ADR-RES, 1.42 µM (inactive); in the experiment with OVCAR-8, 1.4 µM (inactive); in the experiment with HOP-62, 7.94 µM (inactive); with SF-539, 1.09 µM (active). Also, the GI50 in the experiment with UACC-257 is 1.39 µM (inactive); with SK-MEL-28 it was 1.45 µM (inactive); with EKVX it was 1.81 µM (inactive); in the experiment on PC-3 it was 1.32 µM (inactive); in the experiment with NCI-H460, 3.5 µM (inactive); with BT-549 it was 0.547 µM (active). For the same compound, the GI50 in the experiment on K562 was 1.29 µM (inactive).

For the compound `O=C(Nc1ccccc1)c1cc(S(=O)(=O)N2CCNNC2=O)c(S)cc1Cl`, the GI50 was 47.6 µM (inactive) with 786-0; > 100 µM (inactive) in the experiment with SNB-75; > 100 µM (inactive) with SK-MEL-2; > 100 µM (inactive) in the experiment on MDA-N; > 100 µM (inactive) in the experiment on A549; > 100 µM (inactive) in the experiment on OVCAR-3. Besides, the GI50 with COLO 205 was > 100 µM (inactive); in the experiment with NCI/ADR-RES, 34.7 µM (inactive); in the experiment with OVCAR-8, 32.3 µM (inactive); in the experiment on SF-539, > 100 µM (inactive); in the experiment with UACC-257 it was > 100 µM (inactive); with SK-MEL-28 it was > 100 µM (inactive). The GI50 was > 100 µM (inactive) with EKVX; > 100 µM (inactive) in the experiment on PC-3; > 100 µM (inactive) in the experiment on NCI-H460; 37.5 µM (inactive) in the experiment with BT-549; 84.9 µM (inactive) with K562.

On to `C=CC[C@H](O)[C@@](NC(=O)OCc1ccccc1)(Sc1ccc(C)cc1)C(F)(F)F`, for which the GI50 with 786-0 was 16.9 µM (inactive); with NCI-H23 it was 24.5 µM (inactive); with SK-MEL-2, 26.8 µM (inactive); in the experiment with MDA-N, 19.2 µM (inactive); with A549, 27.7 µM (inactive); with OVCAR-3 it was 21.8 µM (inactive). The GI50 is 20.3 µM (inactive) in the experiment with COLO 205; 31.1 µM (inactive) in the experiment with NCI/ADR-RES; 16.9 µM (inactive) with OVCAR-8; 28.9 µM (inactive) in the experiment on HOP-62; 14.6 µM (inactive) in the experiment with SF-539; 23.4 µM (inactive) in the experiment on UACC-257. The GI50 in the experiment on SK-MEL-28 was 43.7 µM (inactive); in the experiment on EKVX, 30.6 µM (inactive); in the experiment on PC-3 it was 29.8 µM (inactive); in the experiment on NCI-H460 it was 30.7 µM (inactive); in the experiment on BT-549, 10.9 µM (inactive); in the experiment with K562 it was 35 µM (inactive).

These data come from ChEMBL document CHEMBL1201862, “PubChem BioAssay data set” (2004).
